{"source": "patent US20240082431A1", "about": "“METALLOHYDROPORPHYRINS FOR PHOTOACOUSTIC IMAGING” (NIRvana Sciences, Inc., priority 2021, published 2024)", "experiment": "Photoacoustic imaging of dyes in agar phantoms (VEVO LAZR 2100, PA scanning mode 680-900 nm)", "type": "physicochemical", "details": "agar phantom, 63 μM B107, 50 μM ICG in DMF", "protocol": "Indocyanine Green (ICG), was obtained from Sigma-Aldrich (Catalogue No. I2633; Sigma-Aldrich Corp., St. Louis, Missouri, United States of America). The nickel bacteriochlorin B107 was prepared as described in Sun et al., 2013 and Chen et al, 2012. Each dye was dissolved in N,N-dimethylformamide (DMF) at the desired concentrations prior to the imaging experiments. Molds for preparing agar phantoms were typically 90 mm diameter glass Petri dishes.\nA highly purified agar powder (Catalogue No. A7921; Sigma-Aldrich Corp., St. Louis, Missouri, United States of America) was dissolved in water (Reagent Grade, Type I) to a final concentration of 2.0% and heated to the melting temperature of 95° C. in a microwave oven. […] The bottle containing agar was held at 75-85° C. for 1-3 hours using a standard hot plate and a double boiler to avoid scorching (which causes a detectable increase in the absorption coefficient). This waiting period at an elevated temperature allows the slow release of air bubbles and produces an agar solution with negligible absorption and very low turbidity. […]\nPhotoacoustic imaging was performed using a VEVO® LAZR^2100 imaging system (VisualSonics, Inc., Toronto, Ontario, Canada) equipped with software version 1.7.2. […] The tubing and its associated image regions were isolated by ultrasound and PA signals for PA intensity quantitation. […]"}
{"molecule": "CC1(C)C(/C=C/C=C/C=C/C=C2\\N(CCCCS(=O)(=O)O)c3ccc4ccccc4c3C2(C)C)=[N+](CCCCS(=O)(=O)[O-])c2ccc3ccccc3c21", "note": "[ICG, Indocyanine Green]", "values": [{"measurement": "Max (nm) of PAI signal", "setting": "depth 3 mm", "value": 790, "unit": "nm"}, {"measurement": "Max (nm) of PAI signal", "setting": "depth 6 mm", "value": 795, "unit": "nm"}]}
